Laboratory results taken from ChEMBL document CHEMBL1201862, “PubChem BioAssay data set” (2004).
The source made the active and inactive calls.

What was measured:
Genome polyprotein = Genome polyprotein (Hepatitis C virus, UniProt Q2Q167); assay: HCV core protein dimerization inhibitors, dose response, biochemical, TR-FRET (AID 2159); set-up: species or system Hepacivirus hominis;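 note: blocks dimerization of HCV core protein measured by TR-FRET between tagged core106 pairs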
SUMO-activating enzyme [1] = target: T1, SUMO-activating enzyme (Homo sapiens, UniProt Q9UBT2); assay: SUMOylation inhibitor hit validation, confirmation, SUMOylation inhibitor project, biochemical, AlphaScreen (AID 2018); type: functional
SUMO-activating enzyme [2] = target: T1, SUMO-activating enzyme; assay: inhibitors of in vitro SUMOylation cascade, primary screen, biochemical, HTRF, uHTS (AID 2006); type: protein-complex assay
[3] = target: Induced myeloid leukemia cell differentiation protein Mcl-1 (Homo sapiens, UniProt Q07820); type: functional
[4] = target: Eukaryotic translation initiation factor 4E (Mus musculus, UniProt P63073); assay: eIF4E–eIF4G protein interaction inhibitors, dose response, biochemical, TR-FRET (AID 855); type: functional;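 note: potency for disrupting eIF4E binding to eIF4GI seen as loss of FRET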
[5] = target: T2, Carboxy-terminal domain RNA polymerase II polypeptide A small phosphatase 1 (Homo sapiens, UniProt Q9GZU7); assay: inhibitors of CTDSP1, concentration-response testing, biochemical assay, absorbance-based, actives from ultra-high-throughput screening (AID 540297); type: functional
T2 sequence (Q9GZU7 whole entry): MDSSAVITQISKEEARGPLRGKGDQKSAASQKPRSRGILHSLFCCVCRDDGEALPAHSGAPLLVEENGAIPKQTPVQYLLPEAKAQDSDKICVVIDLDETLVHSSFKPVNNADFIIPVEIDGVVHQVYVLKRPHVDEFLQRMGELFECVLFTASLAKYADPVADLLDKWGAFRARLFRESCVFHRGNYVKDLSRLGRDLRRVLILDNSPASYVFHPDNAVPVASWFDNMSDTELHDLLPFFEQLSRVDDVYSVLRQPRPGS

[6] = target: E3 ubiquitin-protein ligase Mdm2 (Homo sapiens, UniProt Q00987); assay: enhancers of MDM2-luciferase reporter signal, concentration-effect titration, project on inhibitors of MDM2 ubiquitin ligase, cellular assay, luminescent readout, 384-well plate format (AID 1394); type: functional;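 note: MDM2 E3 inhibitors raise luminescence so EC50 is for signal enhancement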
[7] = target: Mitogen-activated protein kinase 10 (Homo sapiens, UniProt P53779); assay: Dose response biochemical screening assay for inhibitors of c-Jun N-Terminal Kinase 3 (JNK3). [Related pubchem assays: 746 ]
H9c2 = assay: cells; type: functional, cell-based; details: Rattus norvegicus, H9c2, Myocardium;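 note: confirmatory concentration-response retest of ultra-high-throughput screening hits for modulation of myocardial damage; cell death induced by hydrogen peroxide oxidative stress; compound pretreatment for 60 min then peroxide exposure for 2 h; potency is for protecting the cells against peroxide damage rather than for killing them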
Major prion protein = Major prion protein (Homo sapiens, UniProt P04156); type: functional, cell-based
Aminopeptidase N = target: T3, Aminopeptidase N (Plasmodium falciparum FcB1/Columbia, UniProt O96935); assay: P. falciparum M1AAP inhibitors, biochemical, fluorogenic H-Leu-NHMec substrate, 1536-well (AID 1445); set-up: species or system Plasmodium falciparum 3D7, 3D7
T3 sequence (O96935 whole entry): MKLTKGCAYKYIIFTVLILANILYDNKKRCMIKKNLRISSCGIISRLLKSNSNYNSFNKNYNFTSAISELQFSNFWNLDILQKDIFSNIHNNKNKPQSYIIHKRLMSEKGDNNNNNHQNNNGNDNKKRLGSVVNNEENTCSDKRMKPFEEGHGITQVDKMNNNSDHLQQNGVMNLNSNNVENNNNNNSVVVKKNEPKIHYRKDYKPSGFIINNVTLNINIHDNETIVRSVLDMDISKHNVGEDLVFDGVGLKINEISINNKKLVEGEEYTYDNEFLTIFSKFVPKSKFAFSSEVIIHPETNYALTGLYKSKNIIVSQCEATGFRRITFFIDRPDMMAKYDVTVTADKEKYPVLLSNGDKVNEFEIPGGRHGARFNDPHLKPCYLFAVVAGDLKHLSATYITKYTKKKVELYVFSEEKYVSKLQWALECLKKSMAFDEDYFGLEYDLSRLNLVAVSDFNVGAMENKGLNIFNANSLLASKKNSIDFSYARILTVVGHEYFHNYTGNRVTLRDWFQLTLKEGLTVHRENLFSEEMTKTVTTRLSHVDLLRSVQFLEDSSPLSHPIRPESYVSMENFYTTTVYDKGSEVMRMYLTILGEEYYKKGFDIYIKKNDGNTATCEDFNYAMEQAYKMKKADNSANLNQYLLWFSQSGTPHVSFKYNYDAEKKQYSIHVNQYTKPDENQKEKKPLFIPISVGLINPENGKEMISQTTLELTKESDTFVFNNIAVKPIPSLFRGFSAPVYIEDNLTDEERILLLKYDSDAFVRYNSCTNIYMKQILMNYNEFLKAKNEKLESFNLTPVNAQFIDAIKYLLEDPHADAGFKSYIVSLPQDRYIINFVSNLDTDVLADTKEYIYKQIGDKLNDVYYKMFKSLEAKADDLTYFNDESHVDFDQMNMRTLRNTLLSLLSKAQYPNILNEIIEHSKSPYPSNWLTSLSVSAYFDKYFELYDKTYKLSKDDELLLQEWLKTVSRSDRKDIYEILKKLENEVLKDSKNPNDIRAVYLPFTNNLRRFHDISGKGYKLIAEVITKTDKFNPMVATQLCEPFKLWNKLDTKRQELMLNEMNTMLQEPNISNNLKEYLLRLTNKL

[8] = target: T4, RNA-binding protein pos-1 (Caenorhabditis elegans, UniProt G5EF15); assay: inhibitors of POS-1/mex-3 RNA binding, dose response, biochemical, fluorescence polarization (AID 1964);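 note: purified POS-1 fused to maltose binding protein made in E. coli; potency of compounds blocking POS-1 binding to fluorescent RNA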
T4 sequence (G5EF15 whole entry): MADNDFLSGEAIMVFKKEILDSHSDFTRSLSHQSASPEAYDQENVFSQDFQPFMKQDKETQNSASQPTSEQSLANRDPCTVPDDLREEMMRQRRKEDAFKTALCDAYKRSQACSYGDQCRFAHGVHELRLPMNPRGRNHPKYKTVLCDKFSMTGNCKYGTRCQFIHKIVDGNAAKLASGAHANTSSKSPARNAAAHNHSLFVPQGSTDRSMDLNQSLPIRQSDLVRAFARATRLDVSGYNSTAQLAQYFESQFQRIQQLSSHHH

[9] = target: T5, Zinc finger protein mex-5 (Caenorhabditis elegans, UniProt Q9XUB2); assay: MEX-5/TCR-2 RNA interaction inhibitors, dose response, biochemical, C. elegans, fluorescence polarization (AID 1960)
T5 sequence (Q9XUB2 whole entry): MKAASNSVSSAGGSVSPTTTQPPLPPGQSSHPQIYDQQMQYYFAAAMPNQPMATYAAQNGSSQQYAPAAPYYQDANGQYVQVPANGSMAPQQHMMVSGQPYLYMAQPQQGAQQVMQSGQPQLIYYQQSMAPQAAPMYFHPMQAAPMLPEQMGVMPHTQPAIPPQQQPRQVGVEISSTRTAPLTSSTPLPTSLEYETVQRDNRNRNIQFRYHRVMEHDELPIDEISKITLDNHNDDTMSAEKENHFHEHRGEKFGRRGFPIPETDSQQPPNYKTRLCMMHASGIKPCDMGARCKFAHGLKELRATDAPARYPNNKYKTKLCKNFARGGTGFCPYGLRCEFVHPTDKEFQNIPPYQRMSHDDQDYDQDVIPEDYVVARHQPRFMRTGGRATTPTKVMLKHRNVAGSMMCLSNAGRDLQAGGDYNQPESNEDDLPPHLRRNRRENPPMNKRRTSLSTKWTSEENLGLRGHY

[10] = target: Bifunctional protein GlmU (Mycobacterium tuberculosis, UniProt P9WMN3); assay: Inhibitors of Mycobacterial Glucosamine-1-phosphate acetyl transferase (GlmU). Secondary screen.; set-up: species or system Mycobacterium tuberculosis H37Rv
Cysteine protease ATG4B = target: T6, Cysteine protease ATG4B (Homo sapiens, UniProt Q9Y4P1); type: functional;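 note: Fluorescence-based dose-response confirmation assay measuring inhibition of ATG4B activity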
T6 sequence (Q9Y4P1 whole entry): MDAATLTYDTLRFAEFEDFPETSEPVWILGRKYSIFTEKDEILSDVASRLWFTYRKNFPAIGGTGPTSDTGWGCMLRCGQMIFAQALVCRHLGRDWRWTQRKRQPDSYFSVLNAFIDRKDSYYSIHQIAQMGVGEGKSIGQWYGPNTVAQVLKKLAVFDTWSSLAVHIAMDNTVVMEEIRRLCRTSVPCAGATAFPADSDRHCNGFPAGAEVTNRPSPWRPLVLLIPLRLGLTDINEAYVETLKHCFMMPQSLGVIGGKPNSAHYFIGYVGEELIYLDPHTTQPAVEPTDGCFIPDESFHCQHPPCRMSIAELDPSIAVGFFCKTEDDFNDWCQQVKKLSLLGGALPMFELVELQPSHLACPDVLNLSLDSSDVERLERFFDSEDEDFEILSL

Phospholipase A2 = Phospholipase A2 (Homo sapiens, UniProt P04054); type: functional;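 note: confirmatory dose-response counterscreen on phospholipase A2, testing hits that came from an ultra-high-throughput screen for ATG4B inhibitors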
[11] = target: DNA (cytosine-5)-methyltransferase 1 (Homo sapiens, UniProt P26358); assay: DNMT1 methyltransferase inhibitors, confirmation, biochemical, fluorescent molecular beacon (AID 602386); type: functional
[12] = M. tuberculosis growth inhibition, HTS (AID 449762); type: functional
[13] = target: T7, Rac GTPase-activating protein 1 (Homo sapiens, UniProt Q9H0H5); assay: MgcRacGAP GTPase-activating activity inhibitors, confirmation, biochemical, ADP Hunter fluorescence, primary and confirmatory (AID 624330); type: functional
T7 sequence (Q9H0H5 whole entry): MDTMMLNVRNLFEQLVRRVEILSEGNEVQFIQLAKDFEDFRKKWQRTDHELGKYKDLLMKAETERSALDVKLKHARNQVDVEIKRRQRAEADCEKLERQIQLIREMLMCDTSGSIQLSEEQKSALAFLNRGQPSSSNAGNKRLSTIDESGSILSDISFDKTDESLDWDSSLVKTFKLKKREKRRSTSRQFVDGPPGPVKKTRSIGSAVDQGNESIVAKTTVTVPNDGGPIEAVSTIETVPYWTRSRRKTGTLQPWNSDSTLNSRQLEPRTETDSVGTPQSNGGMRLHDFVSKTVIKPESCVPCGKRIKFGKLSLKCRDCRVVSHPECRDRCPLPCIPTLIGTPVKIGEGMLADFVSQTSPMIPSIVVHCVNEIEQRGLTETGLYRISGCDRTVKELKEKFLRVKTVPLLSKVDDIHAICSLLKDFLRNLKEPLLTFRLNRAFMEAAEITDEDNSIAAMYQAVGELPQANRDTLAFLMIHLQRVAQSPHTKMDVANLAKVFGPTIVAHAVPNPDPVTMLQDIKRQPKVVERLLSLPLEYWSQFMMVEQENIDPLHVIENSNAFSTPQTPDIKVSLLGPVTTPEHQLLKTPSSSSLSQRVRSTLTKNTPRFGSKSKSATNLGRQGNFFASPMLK

[14] = target: Heat shock protein HSP 90-alpha (Homo sapiens, UniProt P07900); assay: Luminescence-based dose response biochemical high throughput screening assay for inhibitors of the Heat Shock Protein 90 (HSP90). [Related pubchem assays: 1831 (Summary AID.), 1846 (Confirmation screen.), 1789 (Primary screen.)]
[15] = target: T8, Heat shock factor protein 1 (Mus musculus, UniProt P38532); assay: HSF1 potentiators in luciferase reporter cells, confirmation, cell-based, NIH3T3, luminescence, dose retest (AID 435004); type: functional;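 note: stress induced by proteasome inhibitor MG132 added 30 min after compound; luciferase reporter driven by HSF1 response element in NIH3T3 cells; actives raise luminescence as potentiators of the MG132 stress response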
T8 sequence (P38532 whole entry): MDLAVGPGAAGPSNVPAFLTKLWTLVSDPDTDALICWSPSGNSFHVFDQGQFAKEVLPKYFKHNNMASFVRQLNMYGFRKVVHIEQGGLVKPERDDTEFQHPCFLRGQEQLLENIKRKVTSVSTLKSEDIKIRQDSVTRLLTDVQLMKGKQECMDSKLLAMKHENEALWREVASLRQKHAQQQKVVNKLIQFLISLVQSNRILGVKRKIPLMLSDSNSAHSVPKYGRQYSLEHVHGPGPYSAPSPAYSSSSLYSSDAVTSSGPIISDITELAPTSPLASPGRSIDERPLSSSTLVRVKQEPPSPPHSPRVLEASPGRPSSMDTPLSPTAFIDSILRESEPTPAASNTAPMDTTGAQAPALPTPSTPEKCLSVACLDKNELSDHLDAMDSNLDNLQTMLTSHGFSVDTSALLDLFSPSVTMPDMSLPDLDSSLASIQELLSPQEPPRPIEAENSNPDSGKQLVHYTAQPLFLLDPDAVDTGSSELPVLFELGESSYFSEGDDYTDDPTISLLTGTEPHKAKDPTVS

O=C(Nc1nccs1)c1cc(-c2ccco2)nc2ccccc12
IC50 (Genome polyprotein): > 49.8 µM (not active)
IC50 (SUMO-activating enzyme [1]): 6.87 µM (active)
IC50 (SUMO-activating enzyme [2]): 24.2 µM (active)
IC50 [3]: 2.5 µM (active)
IC50 [4]: > 64 µM (inactive)
IC50 [5]: 3.98 µM (active)

Cc1nc(CSc2nsc(/C=C/N(C)C)c2C#N)cs1
EC50 [6]: 19.8 µM (not active)

Brc1ccc(-c2nn3c(-c4ccco4)nnc3s2)o1
IC50 [7]: 58 µM (not active)
IC50 (H9c2): > 79 µM (inactive)
IC50 (Major prion protein): 4.14 µM (active)
IC50 (cells): > 138 µM (inactive)

O=C(O)c1ccc(-c2ccc(/C=C3\NC(=O)N(Cc4ccc(Cl)cc4)C3=O)o2)cc1Cl
IC50 (Aminopeptidase N): 40.8 µM (active)
EC50 [8]: 29.4 µM (active)
EC50 [9]: 23.5 µM (active)
IC50 [10]: 67.1 µM (active)
IC50 (Cysteine protease ATG4B): 16.2 µM (active)
IC50 (Phospholipase A2): 16.1 µM (active)
IC50 [11]: 4.54 µM (active)

COc1ccc(NC(=O)ON=C2c3ccccc3-c3ccccc32)cc1
IC50 [12]: > 100 µM (active)

CCCOC(=O)c1ccc(O)c(OC)c1
EC50 [6]: 468 µM (not active)
IC50 [13]: 127 µM (active)

CCOC(=O)c1csc(NC(=O)c2cc3ccccc3o2)n1
IC50 [14]: 0.784 µM (active)

C/C(=N/Cc1ccco1)C1=C(O)c2ccccc2C1=O
IC50 [7]: 30.9 µM (not active)
EC50 [15]: > 260 µM (inactive)

Nc1cc(-c2ccccc2)ccc1O
IC50 [14]: 3.39 µM (active)
